Paper PMC7168207, “Dibasic Derivatives of Phenylcarbamic Acid as Prospective Antibacterial Agents Interacting with Cytoplasmic Membrane” (Antibiotics, 2020)
“And” between values parts separate entries of the source, which are not always exact repeats. Identical values can stand only once.

Assays:
[1] = design: method as in PMID 30274224; conditions: methanolic solutions, c = 8.0 × 10^−5 M; cited from earlier work
[2] = tested on: Candida albicans CCM 8261; assay: minimum fungistatic concentration, RPMI 1640; type: cell-based; conditions: CCM8261, CA = C albicans CCM 8261, 48 h
Protocol: Fungistatic activity was tested similarly in RPMI (Roswell Park Memorial Institute) 1640 medium (Sigma, Pool, UK). […] A growth control and sterility control were included. The colonies of C. albicans grown overnight on Sabourad dextrose agar were suspended in sterile phosphate-buffered saline (PBS) to get cell density 0.5 McFarland. The inoculum was diluted to get a final concentration of 10^3 CFU/mL in the wells. Plates were inoculated and cultivated at 37 °C for 48 h. The minimum fungistatic concentration was visually evaluated as the lowest concentration of a tested compound, which inhibited 100% of yeast growth. 5-Flucytosin (Sigma, UK) was used as a positive control.

[3] = tested on: human monocytic leukemia THP-1 cells; assay: in vitro antiproliferative assay (WST-1); type: cell-based; conditions: Homo sapiens, THP-1, 24 h, THP-1 cells, WST-1, 24 h; read-out: Tox IC50
Protocol: The preliminary in vitro screening of the antiproliferative effect of the investigated compounds was performed using a Water Soluble Tetrazolium salts-1 (WST-1) assay kit and a human monocytic leukemia THP-1 cell line by means of the method described recently. The principle of the WST-1 assay kit is the […] mitochondrial dehydrogenases by antiproliferative compounds. The activity of this enzyme directly correlates with the number of metabolically active cells in the culture. The antiproliferative effect was evaluated as the IC50 value (the concentration of the compound causing 50% inhibition of cell proliferation).
Human monocytic leukemia THP-1 cells were used for in vitro antiproliferative assay. Cells were obtained from the European Collection of Cell Cultures (ECACC, Salisbury, UK) and routinely cultured in RPMI (Roswell Park Memorial Institute) 1640 medium supplemented with 10% fetal bovine serum, 2% L-glutamine, 1% penicillin, and streptomycin at 37 °C with 5% CO2. Cells were passaged at approximately one-week intervals. The antiproliferative activity of the compounds was determined using a Water Soluble Tetrazolium Salts-1 (WST-1, 2-(4-iodophenyl)-3-(4-nitrophenyl)-5-(2,4-disulfophenyl)-2H-tetrazolium) assay kit (Roche Diagnostics, Mannheim, Germany) according to the manufacturer’s instructions. The tested compounds were dissolved in DMSO and added in various compound concentrations to the cell suspension in the culture RPMI 1640 medium. The maximum concentration of DMSO in the assays never exceeded 0.1%. Subsequently, the cells were incubated at 37 °C with 5% CO2 for 24 h. For WST-1 assays, cells were seeded into 96-well plates (5 × 10^4 cells/well in 100 μL culture medium) in triplicate in serum-free RPMI 1640 medium, and measurements were taken 24 h after the treatment with the compounds. The median inhibition concentration values, IC50, were deduced through the production of a dose-response curve. All data were evaluated using GraphPad Prism 5.00 software (GraphPad Software, San Diego, CA, USA).

[4] = tested on: vancomycin-resistant enterococci VRE 725B; assay: MIC, broth microdilution; type: cell-based, Enterococcus faecalis; conditions: Enterococcus; VRE3 = VRE 725B; read-out: MICs
Protocol: (§1) The modified broth microdilution method was used for in vitro evaluation of minimum inhibitory concentration. A small portion of bacterial colony cultivated overnight onto nutrient agar (Oxoid, Basingstoke, UK) with 5% bovine blood was suspended in sterile phosphate-buffered saline to get cell density 0.5 McFarland. This inoculum was diluted to reach the final concentration of bacterial cells 5 × 10^5 CFU/mL in the wells. […] For plates with staphylococci, cation adjusted Mueller–Hinton (CaMH) broth (Oxoid) was used; enterococci were cultivated in brain heart infusion (BHI, Oxoid). […] A drug-free control and a sterility control were included. Inoculated plates were incubated in aerobic atmosphere at 37 °C overnight. […] After evaluation of MICs, 10 µL of aliquots from the wells were put onto Mueller–Hinton agar. The agar plates were cultivated at 37 °C for 24 h. The minimum bactericidal concentration (MBC) was defined as the lowest concentration of the compound that killed 99.9% of the bacteria compared to the starting inoculum.

[5] = tested on: vancomycin-resistant enterococci VRE 342B; assay: MIC, broth microdilution; type: cell-based, Enterococcus faecalis; conditions: Enterococcus; VRE1 = VRE 342B; read-out: MICs
Protocol: as §1

E. faecalis ATCC 29212 = assay: MIC, broth microdilution; type: cell-based, Enterococcus faecalis; conditions: Enterococcus faecalis, ATCC 29212 / ATCC 29213; EF = E. faecalis ATCC 29213
Protocol: as §1

[6] = tested on: vancomycin-resistant enterococci VRE 368; assay: MIC, broth microdilution; type: cell-based, Enterococcus faecalis; conditions: Enterococcus; VRE2 = VRE 368; read-out: MICs
Protocol: as §1

[7] = design: method as in PMID 30274224; conditions: cited from earlier work
[8] = design: method as in PMID 30274224; conditions: isocratic RP-HPLC, extrapolated lipophilicity index; cited from earlier work
[9] = tested on: methicillin-resistant S. aureus SA 3202; assay: MIC, broth microdilution; type: cell-based, Staphylococcus aureus; conditions: Staphylococcus aureus; MRSA3 = SA 3202; read-out: MICs
Protocol: as §1

S. aureus ATCC 29213 = assay: MIC, broth microdilution; type: cell-based, Staphylococcus aureus; conditions: Staphylococcus aureus, ATCC29213; SA = S. aureus ATCC 29213; read-out: MICs
Protocol: as §1

[10] = tested on: methicillin-resistant S. aureus SA 630; assay: MIC, broth microdilution; type: cell-based, Staphylococcus aureus; conditions: Staphylococcus aureus; MRSA2 = SA 630; read-out: MICs
Protocol: as §1

[11] = tested on: methicillin-resistant S. aureus 63718; assay: MIC, broth microdilution; type: cell-based, Staphylococcus aureus; conditions: Staphylococcus aureus; MRSA1 = S. aureus 63718; read-out: MICs
Protocol: as §1

MIC [2]	MIC [4]	MIC [5]	MIC (E. faecalis ATCC 29212)	MIC [6]	MIC [9]	MIC (S. aureus ATCC 29213)	MIC [10]	MIC [11]	SMILES	log ε2 (Ch-T) [1]	IC50 [3] [µM]	γ (surface tension, relative surface activity) [7] [N/m]	log kw [8]
> 128 µg/mL and > 213 µM	> 256 µg/mL and > 427 µM	> 256 µg/mL and > 427 µM	> 256 µg/mL and > 427 µM	> 256 µg/mL and > 427 µM	> 256 µg/mL and > 427 µM	> 256 µg/mL and > 427 µM	> 256 µg/mL and > 427 µM	> 256 µg/mL and > 427 µM	CCCCOc1ccccc1NC(=O)OC(CN(CCC)CCC)CN1CCCC1 (stereo not shown) [1a]	4.19	10.8 ± 1.11	0.06464	3.7688
> 128 µg/mL and > 208 µM	> 256 µg/mL and > 417 µM	> 256 µg/mL and > 417 µM	> 256 µg/mL and > 417 µM	> 256 µg/mL and > 417 µM	> 256 µg/mL and > 417 µM	> 256 µg/mL and > 417 µM	> 256 µg/mL and > 417 µM	> 256 µg/mL and > 417 µM	CCCCCOc1ccccc1NC(=O)OC(CN(CCC)CCC)CN1CCCC1 (stereo not shown) [1b]	4.05	12.5 ± 1.22	0.06366	4.0454
> 128 µg/mL and > 203 µM	> 256 µg/mL and > 407 µM	> 256 µg/mL and > 407 µM	> 256 µg/mL and > 407 µM	> 256 µg/mL and > 407 µM	> 256 µg/mL and > 407 µM	> 256 µg/mL and > 407 µM	> 256 µg/mL and > 407 µM	> 256 µg/mL and > 407 µM	CCCCCCOc1ccccc1NC(=O)OC(CN(CCC)CCC)CN1CCCC1 (stereo not shown) [1c]	4.52	15.4 ± 0.22	0.06222	4.6049
> 128 µg/mL and 199 µM	> 256 µg/mL and > 398 µM	> 256 µg/mL and > 398 µM	> 256 µg/mL and > 398 µM	> 256 µg/mL and > 398 µM	> 256 µg/mL and > 398 µM	> 256 µg/mL and > 398 µM	> 256 µg/mL and > 398 µM	> 256 µg/mL and > 398 µM	CCCCCCCOc1ccccc1NC(=O)OC(CN(CCC)CCC)CN1CCCC1 (stereo not shown) [1d]	4.08	16.3 ± 0.7	0.05985	4.9487
> 128 µg/mL and > 259 µM	32 µg/mL and 65.1 µM	32 µg/mL and 65.1 µM	128 µg/mL and 259 µM	64 µg/mL and 129 µM	64 µg/mL and 129 µM	64 µg/mL and 129 µM	64 µg/mL and 129 µM	64 µg/mL and 129 µM	CCCCOc1cccc(NC(=O)OC(CN(CCC)CCC)CN2CCCC2)c1 (stereo not shown) [1e]	4.24	4.2 ± 0.79	0.06316	4.0258
1 µg/mL and 7.75 µM	–	–	–	–	–	–	–	–	Nc1[nH]c(=O)ncc1F [5-FC, flucytosine, reference compound]	–	–	–	–
–	2 µg/mL and 5.72 µM	–	–	–	> 16 µg/mL and > 45.8 µM	2 µg/mL and 5.72 µM	> 16 µg/mL and > 45.8 µM	16 µg/mL and 45.8 µM	CC1(C)S[C@@H]2[C@H](NC(=O)[C@H](N)c3ccccc3)C(=O)N2[C@H]1C(=O)O [AMP, ampicillin, reference compound]	–	> 30	–	–
–	–	–	–	–	–	–	–	–	CC[C@@]1(O)C(=O)OCc2c1cc1n(c2=O)Cc2cc3ccccc3nc2-1 [CMP, camptothecin, reference compound]	–	~0.2	–	–
–	–	–	–	–	> 16 µg/mL	–	> 16 µg/mL	> 16 µg/mL	O=C(O)c1cn(C2CC2)c2cc(N3CCNCC3)c(F)cc2c1=O [CPX, ciprofloxacin, reference compound]	–	–	–	–
